The record followed here is patent US8367342B2, “Cardiac hypertrophy” (Lead Pharma Drug Development IP B.V., priority 2006, dated 2013).

The experiment relates to neonatal rat ventricular myocytes. The experiment is described as follows: Cardiomyocyte hypertrophy (a-actinin staining, cell surface area) in cultured neonatal rat cardiomyocytes. Conditions: cells treated with the control siRNA; AdCnA infection or phenylephrine. Also on record: dose or concentration left out as unconfirmed. It is filed as cell-based. The procedure: Cardiomyocyte cultures and siRNA transfection. Neonatal rat ventricular myocytes were obtained as described previously in detail^6. Neonatal ventricular rat myocytes were obtained by enzymatic dissociation of 1-2 day old rat neonatal ventricles. Ventricles were stored in HEPES buffered DMEM (pH. 7.4) prior to multiple rounds of enzymatic digestion in DMEM nutrient mixture F-12 Ham base (Sigma) supplemented with 0.7 mg/ml collagenase type 2 (Invitrogen) and 1 mg/ml […] (Sigma). Cells were collected by centrifugation at 61×g for 10 min., resuspended in neonatal calf serum (Invitrogen) and stored in an incubator at 37° C. All cell suspensions were pooled, centrifuged at 61×g for 10 min. and resuspended in DMEM (Invitrogen) supplemented with 10% horse serum (Invitrogen) and 5% fetal calf serum (Invitrogen). […]
Immunocytochemistry and confocal microscopy. […] Cells were washed 3 times with PBS for 5 minutes, mounted with coverslips in 0.1 M Tris-HCl (pH 9.5)-glycerol (3:7) including 50 mg/ml n-propylgallate as anti-fading reagent, and analyzed by confocal microscopy using a Zeiss LSM 510 META instrument. […] Cell surface areas were determined using SPOT-imaging software (Diagnostic Instruments) on 80-100 GFP-positive cardiomyocytes in 10 to 20 fields in three independent experiments. […]

In the case of `CNC[C@H](O)c1cccc(O)c1` [PE, phenylephrine], the hypertrophy response entry is given as “robust hypertrophy response”.
